# Data from patent publication US20150119251A1, “AGRICULTURAL PLANT-PROTECTING AGENTS CONTAINING DIPEPTIDE DERIVATIVE AS ACTIVE INGREDIENT” (REPUBLIC OF KOREA (RURAL DEVELOPMENT ADMINISTRATION), priority 2012, published 2015).
# Peptide text beside a SMILES is read from it. * marks the point of attachment. Boc = CC(C)(C)OC(=O)*; OBn = c1ccc(CO*)cc1; OAll = C=CCO*
# Legend:
# [1] = test system: plant bacterial rot (Pectobacterium carotovorum SCC1); experiment: Suppression of bacterial rot on pepper leaves (paper disc on cut leaves); format: in vivo; settings: sprayed on the pepper leaves, 1 or 10 ppm
# Method: (§1) The peppers were raised in the same method as Example 3, and then, the test compounds were dissolved in 20% methanol to make a stock solution, and a stock was diluted to the concentrations of 0.1, 1.0, and 10.0 ppm. The test solutions were sprayed on the leaves or drench-treated on the leaves. After 7 days, the pathogen of plant bacterial rot (Pectobacterium carotovorum SCC1) was cultured in a TSA medium for 27 hours, and then, wetted on an 8 mm diameter paper disc in the concentration of 10^8 cfu/mL. The paper disc was located in the center of the leaves that were cut roundly, and then, after about 7 days, the lesion area was measured. In the case of phytophthora, the potato agar medium cultured with the phytophthora (Phytophthora capsici) was cut in the internal diameter size of 5 mm with a cork borer, and then inoculated to the leaves. After 7 days, the lesion area was observed. In the case of a bacterial rot, when Compounds 6, 89, 93, and 95 were sprayed on the pepper leaves, the bacterial rot was not found in the concentration of 1 or 10 ppm as compared with the non-treated group. […] The Suppression of lesion formation on the leaves when these compounds were drench-treated to the roots can be explained as it was resulted from that systemic disease resistance was induced in the whole plant. These test results are illustrated in the photographs of FIGS. 5 to 9.
# [2] = test system: tobacco bacterial rot (Pectobacterium carotovorum); experiment: Suppression of tobacco bacterial rot; format: in vivo, Pectobacterium carotovorum SCC1
# Summary of the method: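 Test compounds at 1, 10 and 100 ppm (from 20% methanol stock) were applied to tobacco leaves; 7 days later plants were sprayed with Pectobacterium carotovorum SCC1 at 10^8 cfu/mL and kept 3 days at 30° C. Lesion area scored visually as 0–100%.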
# cucumber leaves = experiment: Plant growth promotion, width of cucumber leaf; format: in vivo; settings: non-treated = 100.0 (92.1 mm), unit of the source corrected
# Method: The active ingredients (Compounds 5 to 8, 14, and 15) were drenched to the leaves of a plant (pepper, potato, tomato, tobacco, cucumber, and Chinese cabbage), and then, after 7 days, the plant lengths were measured. Since then, the plant disease pathogen was inoculated, and then, after 3 to 5 days, the sizes of the plant leaves were measured and compared with the control group to obtain the relative growth degrees.
# [3] = test system: pepper phytophthora blight (Phytopthora capsici); experiment: Suppression of pepper phytophthora blight on leaves; format: in vivo; settings: for Lesion outbreak rate: pepper leaves; for Effect on suppressing the outbreak of pepper phytophthora blight or bacterial rot as compared with the non-treated control group: directly sprayed to the leaves
# Method: as §1
# pepper plant = experiment: Overcoming cold weather-damage on pepper plant (2° C. for 1 day); format: in vivo; settings: then room temperature 3 days
# Method: In order to confirm the immunity-activating effect of the compounds of the present invention, the plants were exposed at the temperature so that they could be artificially damaged from cold weather, and the growth and development were observed. After growing the plants for 6 weeks, the compounds were drenched or sprayed on the leaves and the plants were raised for 1 week. After the plants were exposed under a 2° C. growth room for 1 day, they were raised at room temperature for 3 days. The degrees of the growth and development of the plants were observed and the degrees of the damage from cold weather in the plant were determined. […] The test results are illustrated in the photographs of FIGS. 11 and 12.
SMILES,Bacterial rot on pepper leaves as compared with the non-treated group [1],Width of cucumber leaf (relative value to the non-treated group) (cucumber leaves; 1.0 ppm),Width of cucumber leaf (relative value to the non-treated group) (cucumber leaves; 10 ppm),Width of cucumber leaf (relative value to the non-treated group) (cucumber leaves; 100 ppm),Lesion outbreak rate ([3]; 0.1 ppm),Lesion outbreak rate ([3]; 1.0 ppm),Cold weather-damage (pepper plant; sprayed on the leaves),further results
COC(=O)CNC(=O)[C@@H](N)C(C)C [Compound 6] (H-Val-Gly-OMe),not found,114%,124%,123%,–,–,–,"Lesion outbreak rate ([2]; Table 3, tobacco, 1 ppm): 11%; Lesion outbreak rate ([2]; Table 3, tobacco, 10 ppm): 2.1%; Lesion outbreak rate ([2]; Table 3, tobacco, 100 ppm): 3.5%"
COC(=O)C(CC(C)C)NC(=O)C(N)C(C)O (stereo not drawn) [Compound 8] (H-Thr-Leu-OMe; configuration not given here),–,122%,123%,120%,–,–,–,"Lesion outbreak rate ([2]; Table 3, tobacco, 1 ppm): 43%; Lesion outbreak rate ([2]; Table 3, tobacco, 10 ppm): 57%; Lesion outbreak rate ([2]; Table 3, tobacco, 100 ppm): 0%"
COC(=O)[C@H](C)NC(=O)CNC(=O)OC(C)(C)C [Compound 14] (Boc-Gly-Ala-OMe),–,104%,103%,113%,–,–,–,"Lesion outbreak rate ([2]; Table 6, tobacco, 1 ppm): 50%; Lesion outbreak rate ([2]; Table 6, tobacco, 10 ppm): 78%; Lesion outbreak rate ([2]; Table 6, tobacco, 100 ppm): 35%"
COC(=O)[C@H](C)NC(=O)[C@H](Cc1ccc(O)cc1)NC(=O)OC(C)(C)C [Compound 15],–,98.9%,113%,112%,–,–,–,"Lesion outbreak rate ([2]; Table 6, tobacco, 1 ppm): 75%; Lesion outbreak rate ([2]; Table 6, tobacco, 10 ppm): 63%; Lesion outbreak rate ([2]; Table 6, tobacco, 100 ppm): 50%"
COC(=O)C[C@H](NC(=O)OC(C)(C)C)C(=O)N[C@@H](Cc1ccccc1)C(=O)OC [Compound 90] (Boc-Asp(OMe)-Phe-OMe),–,–,–,–,24 area %,7.2 area %,no damages observed,–
COC(=O)C[C@H](N)C(=O)N[C@@H](Cc1ccccc1)C(=O)OC [Compound 91] (H-Asp(OMe)-Phe-OMe),–,–,–,–,14 area %,24 area %,no damages observed,Effect on suppressing the outbreak of pepper phytophthora blight or bacterial rot as compared with the non-treated control group [3]: excellent
C=CCOC(=O)C[C@H](N)C(=O)N[C@@H](Cc1ccccc1)C(=O)OC [Compound 93] (H-Asp(OAll)-Phe-OMe),not found,–,–,–,35 area %,23 area %,no damages observed,Effect on suppressing the outbreak of pepper phytophthora blight or bacterial rot as compared with the non-treated control group [3]: excellent
COC(=O)[C@H](Cc1ccccc1)NC(=O)[C@@H](N)CC(=O)OCc1ccccc1 [Compound 95] (H-Asp(OBn)-Phe-OMe),not found,–,–,–,9.2 area %,3.8 area %,no damages observed,"Outbreak of the phytophthora blight on the leaves ([3]; drench-treated to the roots): significantly decreased; Lesion formation, pepper phytophthora test ([3]; drench-treated, 1.0 or 10.0 ppm): no the lesion formations; Cold weather-damage (pepper plant; drench-treated): no cold weather-damages"
